The values below come from patent US20140031324A1, “COMPOUND COMPOSITION FOR INHALATION USED FOR TREATING ASTHMA” (Intech Biopharm Ltd., priority 2010, published 2014).

The subject of one test is OVA-sensitized mice. Description: Albumin (OVA)-induced asthma model in mice; methacholine-induced tracheal contraction (airway hyperresponsiveness, FlexiVent). The format is in vivo, Balb/c mice. To be noted: single super high dose, alone or in combination, intratracheal, FIGS. 2 to 4.
For test [1] the following is noted: long acting beta-2 agonists (LABA); cited from earlier work.

Method for OVA-sensitized mice: An albumin-inducing asthma model in mice was used to conduct related tests. In accordance with the control group and the experimental group, the mice were divided into the different groups to conduct the experiment. The control group includes a normal control group which none sensitized mice are given saline (no drug), and an asthma control group which sensitized mice are treated with vehicle. The experimental group is divided into sub-group according to different methods of administering drugs. Respectively, such as the group which is using different dosage and different frequency of the beta2-agonist alone and the group which is using different dosage and different frequency of the pharmaceutical combination of the beta2-agonist with the corticosteroid.
The mice which are for sensitization all experience three times of the peritoneal albumin (OVA) injection with ten-day intervals in advance, on the 24th day, collect the blood sample and exam the IgE to confirm allergy. Then, on the 26th day, albumin was administered in the nasal cavities of the mice. And, from the 30th day, the intratracheal administration is divided into groups of once time dosing and seven-day dosing which is further divided into once or twice daily groups. After the last dose, perform a tracheotomy and intubation and use instruments collect the data of that Methacholine (MCh), induces tracheal contraction. […]

Consider `CCC(NC(C)C)C(O)c1ccc(O)c2[nH]c(=O)ccc12` (stereo not drawn) [Procaterol], for which the “acute drug tolerance (ability of trachea relaxing)” value in the test on OVA-sensitized mice is listed as “acute drug tolerance phenomenon of reducing the ability of trachea relaxing”.
As for `OCc1cc(C(O)CNCCCCCCOCCCCc2ccccc2)ccc1O` (stereo not drawn) [Salmeterol, Salmeterol Xinafoate], the “acute drug tolerance (ability of trachea relaxing)” value in the test on OVA-sensitized mice is recorded as “acute drug tolerance phenomenon of reducing the ability of trachea relaxing”. In addition, the duration of action entry in test [1] is given as “up to twelve”.
